{"source": "paper PMC9983021", "about": "“Novel GluN2B-Selective NMDA Receptor Negative Allosteric Modulator Possesses Intrinsic Analgesic Properties and Enhances Analgesia of Morphine in a Rodent Tail Flick Pain Model” (ACS Chemical Neuroscience, 2023)", "key": {"[1]": {"molecular_target": "T1, 5-HT1B (Homo sapiens, UniProt P28222)", "T1 construct": "purchased NIMH Psychoactive Drug Screening Program (PDSP)", "assay": "Radioligand binding assay (NIMH PDSP)", "conditions": "primary screen, quadruplicate", "procedure": "(§1) Conventional competition and saturation radioligand binding assays were used to determine the affinities of reference standards and EU93-108. Experiments were carried out by the NIMH Psychoactive Drug Screening Program (PDSP) and were performed as previously described.[123]\n(§2) The detailed experimental protocols for the radioligand assays are available on the NIMH PDSP website at https://pdsp.unc.edu/pdspweb/content/UNC-CH%20Protocol%20Book.pdf.\n(§3) Receptor Mean % Receptor Mean % Receptor Mean %\n(§4) Inhibition Inhibition Inhibition\n(§5) Supplemental Table S4. Off-Target Actions of EU93-108: Primary GPCR Screen. Cloned human molecular targets were individually expressed and submitted to molecular target-based screening with initial screens performed at a final concentration of 10 µM in quadruplicate. Complete protocols for the assays have been previously published (Besnard J et al. 2012). Where inhibition greater than 50% was measured, secondary screens were performed wherein Ki values were calculated (see Table 4)."}, "[2]": {"system": "BZP Rat Brain Site", "assay": "Radioligand binding assay (NIMH PDSP)", "conditions": "primary screen, 10 µM, quadruplicate", "procedure": "as §1, §2, §3, §4, §5"}, "[3]": {"molecular_target": "T2, DOR (Homo sapiens, UniProt P41143)", "T2 construct": "purchased NIMH Psychoactive Drug Screening Program (PDSP)", "assay": "Radioligand binding assay (NIMH PDSP)", "conditions": "primary screen, quadruplicate", "procedure": "as §1, §2, §3, §4, §5"}, "[4]": {"molecular_target": "T3, M5 (Homo sapiens, UniProt P08912)", "T3 construct": "purchased NIMH Psychoactive Drug Screening Program (PDSP)", "assay": "Radioligand binding assay (NIMH PDSP)", "conditions": "primary screen, quadruplicate", "procedure": "as §1, §2, §3, §4, §5"}, "[5]": {"molecular_target": "T4, SERT (Homo sapiens, UniProt P31645)", "T4 construct": "purchased NIMH Psychoactive Drug Screening Program (PDSP)", "assay": "Radioligand binding assay (NIMH PDSP)", "conditions": "primary screen, quadruplicate", "procedure": "as §1, §2, §3, §4, §5"}, "[6]": {"molecular_target": "T5, H3 (Homo sapiens, UniProt Q9Y5N1)", "T5 construct": "purchased NIMH Psychoactive Drug Screening Program (PDSP)", "assay": "Radioligand binding assay (NIMH PDSP)", "conditions": "primary screen, quadruplicate", "procedure": "as §1, §2, §3, §4, §5"}, "[7]": {"molecular_target": "T6, NET (Homo sapiens, UniProt P23975)", "T6 construct": "purchased NIMH Psychoactive Drug Screening Program (PDSP)", "assay": "Radioligand binding assay (NIMH PDSP)", "conditions": "primary screen, quadruplicate", "procedure": "as §1, §2, §3, §4, §5"}, "[8]": {"molecular_target": "T7, MOR (Homo sapiens, UniProt P35372)", "T7 construct": "purchased NIMH Psychoactive Drug Screening Program (PDSP)", "assay": "Radioligand binding assay (NIMH PDSP)", "conditions": "primary screen, quadruplicate", "procedure": "as §1, §2, §3, §4, §5"}, "[9]": {"molecular_target": "T8, D2 (Homo sapiens, UniProt P14416)", "T8 construct": "purchased NIMH Psychoactive Drug Screening Program (PDSP)", "assay": "Radioligand binding assay (NIMH PDSP)", "conditions": "primary screen, quadruplicate", "procedure": "as §1, §2, §3, §4, §5"}, "[10]": {"molecular_target": "T9, Sigma2 (Homo sapiens, UniProt Q5BJF2)", "T9 construct": "purchased NIMH Psychoactive Drug Screening Program (PDSP)", "assay": "Radioligand binding assay (NIMH PDSP)", "conditions": "primary screen, quadruplicate", "procedure": "as §1, §2, §3, §4, §5"}, "[11]": {"molecular_target": "T10, 5-HT7A (Homo sapiens, UniProt P34969)", "T10 construct": "purchased NIMH Psychoactive Drug Screening Program (PDSP)", "T10 sequence (P34969 1-445 isoform P34969-2)": "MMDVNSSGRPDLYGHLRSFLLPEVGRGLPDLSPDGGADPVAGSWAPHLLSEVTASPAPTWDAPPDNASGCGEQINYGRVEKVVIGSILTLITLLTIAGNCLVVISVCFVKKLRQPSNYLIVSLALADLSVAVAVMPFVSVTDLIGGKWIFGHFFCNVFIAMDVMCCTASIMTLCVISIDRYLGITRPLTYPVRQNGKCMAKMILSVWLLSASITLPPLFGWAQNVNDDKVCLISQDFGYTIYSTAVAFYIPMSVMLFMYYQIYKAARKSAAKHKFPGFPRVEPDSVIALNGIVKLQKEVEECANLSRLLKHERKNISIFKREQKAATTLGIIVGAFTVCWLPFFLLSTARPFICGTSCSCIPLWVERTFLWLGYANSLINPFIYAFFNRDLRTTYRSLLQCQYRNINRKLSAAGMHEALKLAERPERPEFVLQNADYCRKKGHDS", "assay": "Radioligand binding assay (NIMH PDSP)", "conditions": "primary screen, quadruplicate", "procedure": "as §1, §2, §3, §4, §5"}, "[12]": {"molecular_target": "T11, H4 (Homo sapiens, UniProt Q9H3N8)", "T11 construct": "purchased NIMH Psychoactive Drug Screening Program (PDSP)", "assay": "Radioligand binding assay (NIMH PDSP)", "conditions": "primary screen, quadruplicate", "procedure": "as §1, §2, §3, §4, §5"}, "[13]": {"molecular_target": "T12, Beta2 (Homo sapiens, UniProt P07550)", "T12 construct": "purchased NIMH Psychoactive Drug Screening Program (PDSP)", "assay": "Radioligand binding assay (NIMH PDSP)", "conditions": "primary screen, quadruplicate", "procedure": "as §1, §2, §3, §4, §5"}, "[14]": {"molecular_target": "T13, 5-HT1E (Homo sapiens, UniProt P28566)", "T13 construct": "purchased NIMH Psychoactive Drug Screening Program (PDSP)", "assay": "Radioligand binding assay (NIMH PDSP)", "conditions": "primary screen, quadruplicate", "procedure": "as §1, §2, §3, §4, §5"}, "[15]": {"molecular_target": "T14, Alpha1B (Homo sapiens, UniProt P35368)", "T14 construct": "purchased NIMH Psychoactive Drug Screening Program (PDSP)", "assay": "Radioligand binding assay (NIMH PDSP)", "conditions": "primary screen, quadruplicate", "procedure": "as §1, §2, §3, §4, §5"}, "[16]": {"molecular_target": "T15, M4 (Homo sapiens, UniProt P08173)", "T15 construct": "purchased NIMH Psychoactive Drug Screening Program (PDSP)", "assay": "Radioligand binding assay (NIMH PDSP)", "conditions": "primary screen, quadruplicate", "procedure": "as §1, §2, §3, §4, §5"}, "[17]": {"assay": "Determination of plasma and brain concentrations", "format": "in vivo", "conditions": "Sprague-Dawley, rat, ip, male rats, 60 mg/kg i.p.", "procedure": "Brain concentrations were measured from whole forebrain homogenate at each time point.\nTrunk blood was collected in K-EDTA tubes and then spun in a microcentrifuge at 3500 rpm for 10 min to separate plasma, which was then transferred to a clean tube and frozen on dry ice. To prepare forebrain tissue samples, the whole brain was removed from the skull, the cerebellum and brainstem cut away, the meninges were removed, and the forebrain was then rinsed with ice-cold normal saline, after which it was blotted dry with filter paper and weighed on a microbalance. To each forebrain 2.5 mL of ice-cold 50 mM K-phosphate buffer (pH 7.4) was then added and the samples homogenized with a hand-held homogenizer. The brain homogenates were then transferred to clean tubes (2 per brain) and frozen on dry ice.\nPlasma and brain homogenate samples were analyzed by LC-MS/MS operating in multiple reaction monitor mode (MRM) by Ricerca Biosciences (Dublin, OH). […] The amount of parent compound in each plasma or brain sample was calculated by comparing the response of the analyte in the sample to that of a standard curve (Ricerca, OH)."}, "[18]": {"molecular_target": "triheteromeric rat GluN1/GluN2Ac1/GluN2Bc2 (r2Ac1/r2Bc2) (Rattus norvegicus, UniProt P35439+Q00959+Q00960, A876H/F846L/G856D/H848F/K857R/M851T/M860L/Q845K/V861L)", "assay": "Concentration-inhibition curves, oocytes, C1/C2-tagged NMDARs", "format": "cell-based"}}, "note": "Read-outs that look alike come from different tables or passages of the source.", "data": [{"smiles": "CS(=O)(=O)Nc1ccc(OC[C@@H](O)CN2CCN(c3ccc(F)c(F)c3)CC2)cc1", "note": "[EU93-108, (S)-N-(4-(3-(4-(3,4-Difluorophenyl)piperazin-1-yl)-2-hydroxypropoxy)phenyl)methanesulfonamide]", "values": [{"measurement": "inhibition at 10 µM", "setting": "[1]", "value": -7.29, "unit": "%"}, {"measurement": "Mean % Inhibition", "setting": "[2]", "value": 14.68, "unit": "%"}, {"measurement": "inhibition at 10 µM", "setting": "[3]", "value": -8.82, "unit": "%"}, {"measurement": "inhibition at 10 µM", "setting": "[4]", "value": -0.11, "unit": "%"}, {"measurement": "inhibition at 10 µM", "setting": "[5]", "value": 15.1, "unit": "%"}, {"measurement": "inhibition at 10 µM", "setting": "[6]", "value": 22.7, "unit": "%"}, {"measurement": "inhibition at 10 µM", "setting": "[7]", "value": 12.5, "unit": "%"}, {"measurement": "inhibition at 10 µM", "setting": "[8]", "value": 4.04, "unit": "%"}, {"measurement": "inhibition at 10 µM", "setting": "[9]", "value": 23.1, "unit": "%"}, {"measurement": "inhibition at 10 µM", "setting": "[10]", "value": 47.2, "unit": "%"}, {"measurement": "inhibition at 10 µM", "setting": "[11]", "value": 55.9, "unit": "%"}, {"measurement": "inhibition at 10 µM", "setting": "[12]", "value": 2.12, "unit": "%"}, {"measurement": "inhibition at 10 µM", "setting": "[13]", "value": 13.7, "unit": "%"}, {"measurement": "inhibition at 10 µM", "setting": "[14]", "value": 1.68, "unit": "%"}, {"measurement": "inhibition at 10 µM", "setting": "[15]", "value": 5.09, "unit": "%"}, {"measurement": "inhibition at 10 µM", "setting": "[16]", "value": 51.4, "unit": "%"}, {"measurement": "Kp at 60 min", "setting": "[17]; brain (forebrain homogenate) / plasma, from Cmax, read-out: brain-to-plasma ratio", "value": 0.6}, {"measurement": "Cmax", "setting": "[17]; brain (whole forebrain homogenate), whole forebrain homogenate, read-out: Cmax in brain", "value": 18, "unit": "µM"}, {"measurement": "half-life", "setting": "[17]; plasma and brain (forebrain homogenate)", "value": "> 240", "unit": "min"}, {"measurement": "Tmax", "setting": "[17]; plasma and brain (forebrain homogenate), read-out: time of peak concentration (Tmax) (converted)", "value": 30, "unit": "min"}, {"measurement": "Cmax", "setting": "[17]; plasma, read-out: Cmax in plasma", "value": 30, "unit": "µM"}, {"measurement": "residual current remaining at 10 μM EU93-108", "setting": "[18]; 10 μM, % of maximal response, n = 12", "value": 54, "unit": "%"}, {"measurement": "IC50", "setting": "[18]; 100 μM glutamate and 100 μM glycine, −40 mV, pH 7.4, n = 12", "value": 543, "unit": "nM"}, {"measurement": "nH", "setting": "[18]; Hill slope factor of the inhibition curve, Table S1", "value": -0.92}, {"measurement": "Ymin", "setting": "[18]; residual response, Table S1, N = 12", "value": 54.0}]}]}
